{"source": "paper PMC2897734", "about": "(Current topics in medicinal chemistry, 2009)", "type_in_all_cases": "binding", "key": {"[1]": {"target": "coproporphyrinogen III oxidase (Leishmania major, UniProt P84155)", "sequence (P84155 whole entry, the tested form may be a part)": "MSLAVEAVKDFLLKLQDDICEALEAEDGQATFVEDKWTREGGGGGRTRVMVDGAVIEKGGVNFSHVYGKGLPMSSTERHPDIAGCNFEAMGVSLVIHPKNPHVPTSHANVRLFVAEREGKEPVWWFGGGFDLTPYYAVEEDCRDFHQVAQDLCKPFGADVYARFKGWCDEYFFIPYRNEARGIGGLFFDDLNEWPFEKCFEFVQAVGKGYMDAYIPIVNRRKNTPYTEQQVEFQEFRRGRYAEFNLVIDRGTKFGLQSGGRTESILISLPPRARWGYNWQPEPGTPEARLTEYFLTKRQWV", "assay": "fragment cocktail soak, crystal structure"}, "[2]": {"target": "T1, uracil-DNA glycosylase (Leishmania naiffi, UniProt D0VWU0)", "T1 sequence (D0VWU0 1-260)": "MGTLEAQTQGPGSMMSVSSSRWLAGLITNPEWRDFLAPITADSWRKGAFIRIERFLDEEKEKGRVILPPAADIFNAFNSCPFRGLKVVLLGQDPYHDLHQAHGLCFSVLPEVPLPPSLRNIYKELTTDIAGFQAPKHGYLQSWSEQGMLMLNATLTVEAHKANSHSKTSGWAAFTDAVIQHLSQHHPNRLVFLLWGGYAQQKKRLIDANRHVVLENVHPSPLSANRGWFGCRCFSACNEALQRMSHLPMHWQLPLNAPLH", "assay": "fragment cocktail soak, crystal structure"}, "[3]": {"target": "T2, putative adenylate kinase (Leishmania major, UniProt Q4Q7A6)", "T2 sequence (Q4Q7A6 1-180)": "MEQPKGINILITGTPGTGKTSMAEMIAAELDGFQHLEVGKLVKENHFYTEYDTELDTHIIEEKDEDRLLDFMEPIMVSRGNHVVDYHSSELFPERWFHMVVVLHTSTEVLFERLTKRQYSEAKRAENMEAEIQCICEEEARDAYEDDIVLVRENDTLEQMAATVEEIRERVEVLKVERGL", "assay": "fragment cocktail soak, crystal electron density"}, "[4]": {"target": "T1, uracil-DNA glycosylase", "assay": "fragment cocktail soak, crystal structure", "remark": "listed apart in the source"}, "[5]": {"target": "T3, phosphoglycerate mutase (PGM) (Plasmodium falciparum, UniProt Q8IIG6)", "T3 sequence (Q8IIG6 1-250)": "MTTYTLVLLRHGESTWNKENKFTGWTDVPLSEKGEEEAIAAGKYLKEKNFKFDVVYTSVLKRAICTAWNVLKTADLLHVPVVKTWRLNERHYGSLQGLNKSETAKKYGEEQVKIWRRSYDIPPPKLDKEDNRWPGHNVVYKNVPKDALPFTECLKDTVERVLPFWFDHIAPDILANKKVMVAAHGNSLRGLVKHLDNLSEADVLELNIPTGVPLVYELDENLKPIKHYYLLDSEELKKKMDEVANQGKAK", "assay": "fragment cocktail soak, crystal electron density"}}}
{"smiles": "O=C(O)c1cc2cc(F)ccc2[nH]1", "note": "[5-fluoroindole-2-carboxylic acid]", "values": [{"measurement": "fragment cocktail soak, crystal structure", "setting": "[1]", "value": "Fragments from two different cocktails were found to bind: 5-fluoroindole-2-carboxylic acid (PDB: 3DWS)"}]}
{"smiles": "COc1ccc(Cl)cc1C(=O)O", "note": "[5-chloro-2-methoxybenzoic acid]", "values": [{"measurement": "IC50", "setting": "[2]", "value": "~15", "unit": "mM"}]}
{"smiles": "Cc1cc(N)c2ccccc2n1", "note": "[4-amino-2-methylquinoline]", "values": [{"measurement": "fragment cocktail soak, crystal electron density", "setting": "[3]", "value": "Electron density for 4-amino-2-methylquinoline when bound to L.major adenylate kinase (left)"}]}
{"smiles": "O=C(O)c1ccc2cccc(O)c2n1", "note": "[8-hydroxyquinoline-2-carboxylic acid]", "values": [{"measurement": "fragment cocktail soak, crystal structure", "setting": "[4]", "value": "DMSO and 8-hydroxyquinoline-2-carboxylic acid (left lower)"}]}
{"smiles": "c1cc(N2CCOCC2)ccn1", "note": "[4-morpholinopyridine]", "values": [{"measurement": "fragment cocktail soak, crystal structure", "setting": "[4]", "value": "Fragments bound to L.naiffi uracil-DNA glycosylase: 4-morpholinopyridine (left upper)"}]}
{"smiles": "O=C(O)c1ccc(-c2ccccc2)o1", "note": "[5-phenyl-2-furoic acid]", "values": [{"measurement": "fragment cocktail soak, crystal electron density", "setting": "[5]", "value": "Electron density for 5-Phenyl-2-furoic acid when bound to P.falciparum PGM (left)"}]}
